US20250388574A1, “HETEROCYCLIC COMPOUNDS AS TRIGGERING RECEPTOR EXPRESSED ON MYELOID CELLS 2 AGONISTS AND METHODS OF USE” (AMGEN INC., priority 2020, published 2025)

Experiments:
[1] = target: T1, hTREM2 (Homo sapiens, UniProt Q9NZC2); assay: Phospho-Syk AlphaLisa assay in HEK293T-hTREM2 cells expressing human TREM2 and DAP12 (Example A2); format: cell-based; design: expressed in transfected cells; host or cells: HEK293T-hTREM2 cells; settings: HEK293 cells, Syk phosphorylation, Examples 276-283
T1 sequence (Q9NZC2 19-230): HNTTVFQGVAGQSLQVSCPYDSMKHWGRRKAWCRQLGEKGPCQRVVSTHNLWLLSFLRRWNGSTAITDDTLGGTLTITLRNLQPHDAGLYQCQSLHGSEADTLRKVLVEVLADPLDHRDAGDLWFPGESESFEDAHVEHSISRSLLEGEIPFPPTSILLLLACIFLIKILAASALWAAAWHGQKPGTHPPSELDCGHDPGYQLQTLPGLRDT
T1 sequence (O43914 22-113 partner): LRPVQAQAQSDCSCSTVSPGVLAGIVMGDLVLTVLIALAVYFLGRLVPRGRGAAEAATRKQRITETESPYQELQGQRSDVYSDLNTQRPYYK
Procedure: Measurement of TREM2 agonist potency was done using a HEK cell line expressing human TREM2 and DAP12 (HEK293T-hTREM2 cells). Binding of small molecules to, and activation of, TREM2 increases the phosphorylation of Syk. The resultant levels of Syk phosphorylation were measured using a commercial AlphaLisa reagent kit. To perform the assay, HEK-hTREM2 cells were plated at 14,000 cells per well in a 384 well plate, in 25 μL of complete growth media and incubated at 37° C., 5% CO2 for 20-24 hours. Prior to the assay, test compounds were diluted in the 384 well plates in assay buffer and allowed to equilibrate for 30 minutes. Growth media was removed from cell plates by inversion on blotting paper, and 25 μL of test compounds in assay buffer was added to cells. Cells were incubated for 45 minutes at room temperature. After 45 minutes, assay buffer was removed and 10 μL of lysis buffer was added. Plates were shaken for 20 minutes at 350 RPM at room temperature. After complete lysis, AlphaLisa reagents were added to the lysate, and fluorescence intensity was measured using a Perkin Elmer Envision plate reader. Intensities were used to generate a standard curve, and % activation was calculated. Curve fitting was performed using Prism v9 software, log(agonist) vs response—variable slope (four parameters), and EC50s were calculated from the curve fit.
The results presented in Table 11 have been generated with the in vitro assay described above for Examples 276-283. This assay may be used to test any of the compounds described herein to assess and characterize a compound's ability to act as an agonist of TREM2.

[2] = target: T1, hTREM2; assay: Phospho-Syk AlphaScreen/AlphaLISA assay in TREM2 and DAP12 overexpressing HEK293 cells (Example A1); format: cell-based; design: expressed in transfected cells; settings: HEK293 cells; for EC50: read-out: hTREM2 EC50
How it was run: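 Single-cell-cloned HEK293 stably overexpressing TREM2 and DAP12, plated 20,000 cells/well for 20 h, then exposed to compounds (1% DMSO) 45 min at room temperature. Lysates probed for phospho-Syk by AlphaLISA sandwich (anti-pSyk, biotinylated anti-Syk); signal normalized to percent of control (100 nM anti-TREM2 antibody vs isotype) and fitted by 4-parameter logistic.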

Compound | EC50 [1] | Emax [2] | EC50 [2]
Cc1cc([C@H]2C[C@@H](c3cc4nc(C)n(C)c(=O)c4c(-c4ccc(F)cc4F)n3)CCO2)ccn1 (racemic) [Example 278, 5-(2,4-difluorophenyl)-2,3-dimethyl-7-(2-(2-methylpyridin-4-yl)tetrahydro-2H-pyran-4-yl)pyrido[4,3-d]pyrimidin-4(3H)-one] | 50 to 500 nM |  | 
Cc1cc([C@H]2C[C@@H](c3cc4nc(C)n(C)c(=O)c4c(C45CC(C(F)(F)F)(C4)C5)n3)CCO2)ccn1 (racemic) [Example 281, 2,3-dimethyl-7-(2-(2-methylpyridin-4-yl)tetrahydro-2H-pyran-4-yl)-5-(3-(trifluoromethyl)bicyclo[1.1.1]pentan-1-yl)pyrido[4,3-d]pyrimidin-4(3H)-one] | < 50 nM |  | 
Cc1cc(C2CN(c3cc4nc(C)n(C)c(=O)c4c(C45CC(C(F)(F)F)(C4)C5)n3)CCO2)ccn1 (stereo not drawn) [Example 282, 2,3-dimethyl-7-(2-(2-methylpyridin-4-yl)morpholino)-5-(3-(trifluoromethyl)bicyclo[1.1.1]pentan-1-yl)pyrido[4,3-d]pyrimidin-4(3H)-one] | < 50 nM |  | 
COc1cc(C2CN(c3cc4nc(C)n(C)c(=O)c4c(C45CC(C(F)(F)F)(C4)C5)n3)CCO2)ccn1 (stereo not drawn) [Example 283, 7-(2-(2-methoxypyridin-4-yl)morpholino)-2,3-dimethyl-5-(3-(trifluoromethyl)bicyclo[1.1.1]pentan-1-yl)pyrido[4,3-d]pyrimidin-4(3H)-one] | 50 to 500 nM |  | 
ethyl (2R,4S)-4-(5-(4-chloro-2-fluorophenyl)-2,3-dimethyl-4-oxo-3,4-dihydropyrido[4,3-d]pyrimidin-7-yl)tetrahydro-2H-pyran-2-carboxylate and ethyl (2S,4R)-4-(5-(4-chloro-2-fluorophenyl)-2,3-dimethyl-4-oxo-3,4-dihydropyrido[4,3-d]pyrimidin-7-yl)tetrahydro-2H-pyran-2-carboxylate [Example 167] |  | ++++ (Emax>300) | 50 to 500 nM

Results, then the compound that gave them:

EC50 [1] | Emax [2] | EC50 [2] | Compound
< 50 nM |  |  | Cc1cc(C2CN(c3cc4nc(C)n(C)c(=O)c4c(-c4ccc(F)cc4F)n3)CCO2)ccn1 (stereo not drawn) [Example 276, 5-(2,4-difluorophenyl)-2,3-dimethyl-7-(2-(2-methylpyridin-4-yl)morpholino)pyrido[4,3-d]pyrimidin-4(3H)-one]
50 to 500 nM |  |  | Cc1cc([C@H]2C[C@@H](c3cc4nc(C)n(C)c(=O)c4c(-c4ccc(C(F)(F)F)nc4)n3)CCO2)ccn1 [Example 277, 2,3-dimethyl-7-(2-(2-methylpyridin-4-yl)tetrahydro-2H-pyran-4-yl)-5-(6-(trifluoromethyl)pyridin-3-yl)pyrido[4,3-d]pyrimidin-4(3H)-one]
< 50 nM |  |  | COc1cc(C2CN(c3cc4nc(C)n(C)c(=O)c4c(-c4ccc(F)cc4F)n3)CCO2)ccn1 (stereo not drawn) [Example 279, 5-(2,4-difluorophenyl)-7-(2-(2-methoxypyridin-4-yl)morpholino)-2,3-dimethylpyrido[4,3-d]pyrimidin-4(3H)-one]
< 50 nM |  |  | Cc1cc(C2CN(c3cc4nc(C)n(C)c(=O)c4c(-c4ccc(C(F)(F)F)nc4)n3)CCO2)ccn1 (stereo not drawn) [Example 280, 2,3-dimethyl-7-(2-(2-methylpyridin-4-yl)morpholino)-5-(6-(trifluoromethyl)pyridin-3-yl)pyrido[4,3-d]pyrimidin-4(3H)-one]
 | +++ (Emax>200 and ≤300) | 3000 to 100000 nM | ethyl (2S,4S)-4-(5-(4-chloro-2-fluorophenyl)-2,3-dimethyl-4-oxo-3,4-dihydropyrido[4,3-d]pyrimidin-7-yl)tetrahydro-2H-pyran-2-carboxylate and ethyl (2R,4R)-4-(5-(4-chloro-2-fluorophenyl)-2,3-dimethyl-4-oxo-3,4-dihydropyrido[4,3-d]pyrimidin-7-yl)tetrahydro-2H-pyran-2-carboxylate [Example 168]
